Measured values: PubChem BioAssay AID1259407 (Chemical Carcinogenesis Research Information System (CCRIS), 2018)
Active and inactive are the calls of the source. The rule behind the calls is not given here.

Test system: CCRIS mutagenicity, Ames/micronucleus/aberration tests
Test: CCRIS mutagenicity studies

With `ClC=C(Cl)Cl` as the molecule, how does the mutagenic call (End Point: IN VITRO CHROMOSOMAL ABERRATIONS, Test System: CHINESE HAMSTER LUNG FIBROBLAST CELLS (CHL/IU), Metabolic Activation: NONE) read?
The mutagenic call was “inactive; negative”.

What about the mutagenic call (End Point: IN VITRO CHROMOSOMAL ABERRATIONS, Test System: CHINESE HAMSTER LUNG FIBROBLAST CELLS (CHL/IU), Metabolic Activation: RAT, LIVER, S-9, PHENOBARBITAL AND 5,6-BENZOFLAVONE) of the same molecule?
The mutagenic call was “inactive; negative”.

What about the mutagenic call (End Point: IN VITRO CHROMOSOMAL ABERRATIONS, Test System: CHINESE HAMSTER OVARY CELLS, Metabolic Activation: NONE) of the same molecule?
The mutagenic call was “inactive; negative; precipitation occurred at all doses”.

And the mutagenic call (End Point: IN VITRO CHROMOSOMAL ABERRATIONS, Test System: CHINESE HAMSTER OVARY CELLS, Metabolic Activation: RAT, LIVER, S-9, AROCLOR 1254)?
The mutagenic call was “inactive; negative; precipitation occurred at all doses”.

What about the mutagenic call (End Point: IN VITRO MICRONUCLEUS, Test System: V79 CELLS, Metabolic Activation: NONE) of the same molecule?
Its mutagenic call is “inactive; negative”.

And the mutagenic call (End Point: IN VITRO MICRONUCLEUS, Test System: V79 CELLS, Metabolic Activation: RAT, LIVER, S-9, AROCLOR 1254)?
Its mutagenic call is “inactive; negative”.

And the mutagenic call (Test System: AMES SALMONELLA TYPHIMURIUM, Strain/Indicator: TA97, Metabolic Activation: NONE, Method: STANDARD PLATE)?
Its mutagenic call is “active; positive”.

What about the mutagenic call (Test System: AMES SALMONELLA TYPHIMURIUM, Strain/Indicator: TA97, Metabolic Activation: RAT, LIVER, S-9, AROCLOR 1254, Method: STANDARD PLATE) of the same molecule?
Its mutagenic call is “active; positive”.

And the mutagenic call (Test System: AMES SALMONELLA TYPHIMURIUM, Strain/Indicator: TA98, Metabolic Activation: HAMSTER, LIVER, S-9, AROCLOR 1254, Method: DESICCATOR)?
The mutagenic call was “inactive; negative”.

What about the mutagenic call (Test System: AMES SALMONELLA TYPHIMURIUM, Strain/Indicator: TA98, Metabolic Activation: HAMSTER, LIVER, S-9, AROCLOR 1254, Method: PREINCUBATION) of the same molecule?
Its mutagenic call is “inactive; negative”.

What about the mutagenic call (Test System: AMES SALMONELLA TYPHIMURIUM, Strain/Indicator: TA98, Metabolic Activation: NONE, Method: DESICCATOR) of the same molecule?
Its mutagenic call is “inactive; negative”.

And the mutagenic call (Test System: AMES SALMONELLA TYPHIMURIUM, Strain/Indicator: TA98, Metabolic Activation: NONE, Method: PREINCUBATION)?
The mutagenic call was “inactive; negative”.

What about the mutagenic call (Test System: AMES SALMONELLA TYPHIMURIUM, Strain/Indicator: TA98, Metabolic Activation: NONE, Method: STANDARD PLATE) of the same molecule?
The mutagenic call was “inactive; negative”.

And the mutagenic call (Test System: AMES SALMONELLA TYPHIMURIUM, Strain/Indicator: TA98, Metabolic Activation: RAT, LIVER, S-9, AROCLOR 1254, Method: DESICCATOR)?
Its mutagenic call is “inactive; negative”.

What about the mutagenic call (Test System: AMES SALMONELLA TYPHIMURIUM, Strain/Indicator: TA98, Metabolic Activation: RAT, LIVER, S-9, AROCLOR 1254, Method: PREINCUBATION) of the same molecule?
The mutagenic call was “inactive; negative”.

What about the mutagenic call (Test System: AMES SALMONELLA TYPHIMURIUM, Strain/Indicator: TA98, Metabolic Activation: RAT, LIVER, S-9, AROCLOR 1254, Method: STANDARD PLATE) of the same molecule?
The mutagenic call was “active; positive”.

And the mutagenic call (Test System: AMES SALMONELLA TYPHIMURIUM, Strain/Indicator: TA100, Metabolic Activation: HAMSTER, LIVER, S-9, AROCLOR 1254, Method: DESICCATOR)?
Its mutagenic call is “inactive; negative”.

And the mutagenic call (Test System: AMES SALMONELLA TYPHIMURIUM, Strain/Indicator: TA100, Metabolic Activation: HAMSTER, LIVER, S-9, AROCLOR 1254, Method: PREINCUBATION)?
The mutagenic call was “inactive; negative”.

What about the mutagenic call (Test System: AMES SALMONELLA TYPHIMURIUM, Strain/Indicator: TA100, Metabolic Activation: MOUSE, LIVER, S-9, AROCLOR 1254, Method: DESICCATOR) of the same molecule?
The mutagenic call was “active; positive”.

And the mutagenic call (Test System: AMES SALMONELLA TYPHIMURIUM, Strain/Indicator: TA100, Metabolic Activation: NONE, Method: DESICCATOR)?
Its mutagenic call is “inactive; negative”.

What about the mutagenic call (Test System: AMES SALMONELLA TYPHIMURIUM, Strain/Indicator: TA100, Metabolic Activation: NONE, Method: PREINCUBATION) of the same molecule?
Its mutagenic call is “inactive; negative”.

And the mutagenic call (Test System: AMES SALMONELLA TYPHIMURIUM, Strain/Indicator: TA100, Metabolic Activation: NONE, Method: STANDARD PLATE)?
The mutagenic call was “inactive; negative”.

And the mutagenic call (Test System: AMES SALMONELLA TYPHIMURIUM, Strain/Indicator: TA100, Metabolic Activation: NONE, Method: VAPOR CHAMBER)?
The mutagenic call was “inactive; negative”.

And the mutagenic call (Test System: AMES SALMONELLA TYPHIMURIUM, Strain/Indicator: TA100, Metabolic Activation: RAT, LIVER, S-9, AROCLOR 1254, Method: DESICCATOR)?
Its mutagenic call is “inactive; negative”.

What about the mutagenic call (Test System: AMES SALMONELLA TYPHIMURIUM, Strain/Indicator: TA100, Metabolic Activation: RAT, LIVER, S-9, AROCLOR 1254, Method: PREINCUBATION) of the same molecule?
The mutagenic call was “inactive; negative”.

What about the mutagenic call (Test System: AMES SALMONELLA TYPHIMURIUM, Strain/Indicator: TA100, Metabolic Activation: RAT, LIVER, S-9, AROCLOR 1254, Method: STANDARD PLATE) of the same molecule?
Its mutagenic call is “inactive; negative”.

And the mutagenic call (Test System: AMES SALMONELLA TYPHIMURIUM, Strain/Indicator: TA102, Metabolic Activation: S-9, Method: STANDARD PLATE)?
Its mutagenic call is “inactive; negative”.

And the mutagenic call (Test System: AMES SALMONELLA TYPHIMURIUM, Strain/Indicator: TA104, Metabolic Activation: NONE, Method: STANDARD PLATE)?
The mutagenic call was “inactive; negative”.

What about the mutagenic call (Test System: AMES SALMONELLA TYPHIMURIUM, Strain/Indicator: TA104, Metabolic Activation: RAT, LIVER, S-9, AROCLOR 1254, Method: STANDARD PLATE) of the same molecule?
Its mutagenic call is “inactive; negative”.

And the mutagenic call (Test System: AMES SALMONELLA TYPHIMURIUM, Strain/Indicator: TA1535, Metabolic Activation: HAMSTER, LIVER, S-9, AROCLOR 1254, Method: PREINCUBATION)?
The mutagenic call was “inactive; negative”.

What about the mutagenic call (Test System: AMES SALMONELLA TYPHIMURIUM, Strain/Indicator: TA1535, Metabolic Activation: NONE, Method: DESICCATOR) of the same molecule?
Its mutagenic call is “active; positive”.

And the mutagenic call (Test System: AMES SALMONELLA TYPHIMURIUM, Strain/Indicator: TA1535, Metabolic Activation: NONE, Method: PREINCUBATION)?
Its mutagenic call is “inactive; negative”.

And the mutagenic call (Test System: AMES SALMONELLA TYPHIMURIUM, Strain/Indicator: TA1535, Metabolic Activation: NONE, Method: VAPOR CHAMBER)?
Its mutagenic call is “inactive; negative”.

What about the mutagenic call (Test System: AMES SALMONELLA TYPHIMURIUM, Strain/Indicator: TA1535, Metabolic Activation: RAT, LIVER, S-9, AROCLOR 1254, Method: DESICCATOR) of the same molecule?
Its mutagenic call is “active; positive”.

What about the mutagenic call (Test System: AMES SALMONELLA TYPHIMURIUM, Strain/Indicator: TA1535, Metabolic Activation: RAT, LIVER, S-9, AROCLOR 1254, Method: PREINCUBATION) of the same molecule?
Its mutagenic call is “inactive; negative”.

And the mutagenic call (Test System: AMES SALMONELLA TYPHIMURIUM, Strain/Indicator: TA1537, Metabolic Activation: HAMSTER, LIVER, S-9, AROCLOR 1254, Method: PREINCUBATION)?
Its mutagenic call is “inactive; negative”.

And the mutagenic call (Test System: AMES SALMONELLA TYPHIMURIUM, Strain/Indicator: TA1537, Metabolic Activation: NONE, Method: PREINCUBATION)?
Its mutagenic call is “inactive; negative”.

What about the mutagenic call (Test System: AMES SALMONELLA TYPHIMURIUM, Strain/Indicator: TA1537, Metabolic Activation: RAT, LIVER, S-9, AROCLOR 1254, Method: PREINCUBATION) of the same molecule?
The mutagenic call was “inactive; negative”.

And the mutagenic call (Test System: AMES SALMONELLA TYPHIMURIUM, Strain/Indicator: TA2638, Metabolic Activation: S-9, Method: STANDARD PLATE)?
Its mutagenic call is “inactive; negative”.

And the mutagenic call (Test System: E. COLI, Strain/Indicator: WP2 (PKM101), Metabolic Activation: S-9, Method: STANDARD PLATE)?
The mutagenic call was “inactive; negative”.

What about the mutagenic call (Test System: E. COLI, Strain/Indicator: WP2 UVRA (PKM101), Metabolic Activation: S-9, Method: STANDARD PLATE) of the same molecule?
Its mutagenic call is “inactive; negative”.

And the mutagenic call (Test System: MOUSE LYMPHOMA, Strain/Indicator: L5178Y (TK+/TK-), Metabolic Activation: NONE, Method: SUSPENSION/PLATE)?
The mutagenic call was “inactive; negative”.

What about the mutagenic call (Test System: MOUSE LYMPHOMA, Strain/Indicator: L5178Y (TK+/TK-), Metabolic Activation: RAT, LIVER, S-9, AROCLOR 1254, Method: SUSPENSION/PLATE) of the same molecule?
The mutagenic call was “active; positive”.

Which mutagenic call (Test System: AMES SALMONELLA TYPHIMURIUM, Strain/Indicator: TA98, Metabolic Activation: RAT, LIVER, S-9, PHENOBARBITAL AND BETA-NAPHTHOFLAVONE, Method: PREINCUBATION) does the source give for `COc1cc2c(cc1OC)-c1c3c(cc4c1[C@H](C2)N(C)CC4)OCO3` here?
The mutagenic call was “active; positive”.

And the mutagenic call (Test System: AMES SALMONELLA TYPHIMURIUM, Strain/Indicator: TA100, Metabolic Activation: RAT, LIVER, S-9, PHENOBARBITAL AND BETA-NAPHTHOFLAVONE, Method: PREINCUBATION)?
The mutagenic call was “active; positive”.
